{
  "source": "paper PMC2867956",
  "about": "“Interdomain Interactions Control Ca^2+-Dependent Potentiation in the Cation Channel TRPV4” (PLoS ONE, 2010)",
  "key": {"[1]": {"test_system": "TRPV4 mutant KRA", "assay": "Whole-cell patch clamp, TRPV4 mutant KRA", "conditions": "4α-PMA 1 µM, nominally Ca^2+-free; -100 and +100 mV, p = 0.012 and 0.007; n = 5", "procedure": "(§4) Patch clamp recordings were performed on HEK293 cells in the whole cell configuration. Cells were clamped at a potential of −20 mV, and current-voltage (I–V) relations were obtained from voltage ramps from −100 mV to +100 mV. The standard extracellular solution contained 140 mM NaCl, 5 mM CsCl, 2 mM CaCl2, 1 mM MgCl2, 10 mM glucose, and 10 mM HEPES (pH 7.4 with NaOH). In nominally Ca^2+-free solutions, Ca^2+ was omitted. The standard intracellular solution contained 110 mM cesium methanesulfonate, 25 mM CsCl, 2 mM MgCl2, 0.362 mM CaCl2, 1 mM EGTA, and 30 mM HEPES (pH 7.2 with CsOH) with a calculated [Ca^2+] of 100 nM.\n(§5) Patch clamp recordings were performed on HEK293 cells in the whole cell configuration using an EPC10 amplifier and Pulse software (HEKA, Lamprecht, Germany). […] Cells were clamped at a potential of –20 mV, and current-voltage (I-V) relations were obtained from voltage ramps from –100 mV to +100 mV with a duration of 400 ms applied every 4 seconds. Ramp data were acquired with a sampling rate of 20 kHz after filtering at 4 kHz. […] The standard intracellular solution contained 110 mM cesium methanesulfonate, 25 mM CsCl, 2 mM MgCl2, 0.362 mM CaCl2, 1 mM EGTA, and 30 mM HEPES (pH 7.2 with CsOH) with a calculated [Ca^2+] of 100 nM (MaxChelator, Chris Patton, Stanford, USA). […]"}, "[2]": {"test_system": "CFP-TRPV4-YFP", "conditions": "HEK293 cells, Ca^2+-containing buffer; 4α-PMA data not shown; concomitant increase in donor fluorescence"}, "[3]": {"test_system": "TRPV4 mutant WIA", "assay": "Whole-cell patch clamp, TRPV4 mutant WIA", "conditions": "4α-PMA 1 µM, nominally Ca^2+-free; -100 and +100 mV, p = 0.014 and 0.023; n = 8", "procedure": "as §4, §5"}, "[4]": {"test_system": "wt TRPV4", "assay": "Whole-cell patch clamp, wild type TRPV4", "type": "cell-based, human", "description": "(§1) (See Methods S1 for details)."}, "[5]": {"target": "CaM (UniProt P0DP23)", "assay": "Fluorescence polarization, CaM binding to carboxyfluorescein-labeled TRPV4 peptides", "conditions": "50 mM Tris pH 7.5, 100 mM KCl, 0.1% BSA, triplicate", "method": "(§2) Protein interaction experiments were performed in buffers containing 50 mM Tris, pH 7.5, 100 mM KCl, 0.1% BSA and calcium at the indicated concentrations. Calcium concentrations below 50 µM were buffered with HEDTA, EGTA or EDTA at a buffer concentration of 10 mM. CaM concentrations were 10 µM or as indicated; the tracer peptide concentration was 100 nM. Fluorescence anisotropy was measured in a 384-well black multititer plate (Fluotrac 200, Greiner) using a Fusion alpha FP instrument (PerkinElmer) at 1 s reading time per well. Fluorescence polarization (FP) was calculated according to: [drawing 1] with Ipar and Iperp as the fluorescence emission intensities in planes parallel and perpendicular to the excitation plane. FP signals are given as mean±SEM of triplicate measurements in milli-P (mP) units.\n(0.11 MB TIF) Click here for additional data file."}, "[6]": {"test_system": "TRPV4", "assay": "FRET acceptor bleaching, full-length TRPV4 N and C termini in HEK293 cells", "type": "cell-based, human", "conditions": "extrapolated donor increase at full acceptor photobleaching; unstimulated HEK293; n = 7 (CFP-TRPV4-YFP), 20 and 13 as printed 'respectively'; p<0.0001 versus control", "description": "as §1"}, "[7]": {"test_system": "TRPV4 C terminus peptide library", "assay": "Peptide library overlay, TRPV4 C terminus", "type": "binding, human", "conditions": "20-mer peptides on filter, 100 nM biotinylated protein", "description": "(0.31 MBTIF) Click here for additional data file."}, "[8]": {"test_system": "TRPV4 C2 fragment", "assay": "AlphaScreen interdomain interaction with C2", "type": "binding, human", "description": "First, we did a complementation experiment to test whether a CaM molecule that binds to the C2 fragment of TRPV4 through its C-lobe can form an additional interaction with another CaM binding domain thus forming a ternary complex. […] We used an AlphaScreen-based proximity assay (Fig. 2, Methods S1) in which the acceptor beads were coated with the C-terminal fragment C2-Flag, and the donor beads either with the N-terminal CaM binding peptide P2-biotin, or, as a negative control, with C2-biotin. The interaction between the proteins was measured in the presence of increasing CaM concentrations in 100 µM Ca^2+ or 1 mM EGTA (Fig. 3A).\nIn an AlphaScreen interaction experiment, donor and acceptor beads were incubated with 10 nM C2-biotin and N2-Flag at concentrations ranging from 30 pM to 1.5 µM, respectively (Fig. 3C).\n(§3) Proteins were expressed in E. coli, affinity purified and biotinylated if applicable (for details see Methods S1). For protein interaction measurements, a proximity assay system based on the AlphaScreen technology (PerkinElmer) was used (see Methods S1). Briefly, streptavidin-coated AlphaScreen donor and anti-Flag acceptor beads at a final concentration of 16.7 µg/ml were incubated in a 384-well plate format (OptiPlate-384, PerkinElmer) with C2-GST-biotin or P2-biotin and the respective Flag-tagged interaction protein at concentrations of 10 nM, if not otherwise indicated. Assay buffer conditions were 50 mM Tris, pH 7.4, 100 mM KCl, and 0.1% BSA. After incubation for 90 min at room temperature, the AlphaScreen output signal was recorded in a Fusion alpha FP instrument (PerkinElmer) at 2 s reading time per well. AlphaScreen signals are given as mean±SEM in counts per second (cps) units.\nThe expression plasmids containing the cDNA for CaM or TRPV4 fragments in the pGEX-2TK vector (Amersham) or a modified derivative that contains an in-frame Flag epitope 5’ to the multiple cloning site were transformed into the BL21(DE3) Escherichia coli host, and protein expression was induced by 200 mg/ml IPTG at an OD600 of 0.6. […] The GST-Flag fusion proteins were eluted with 50 mM Tris, pH 8.5, 100 mM KCl, and 10 mM glutathione. […] The purity of all proteins was confirmed by SDS-polyacrylamide gel electrophoresis and Coomassie staining, and the protein concentration determined by the method according to Bradford using an albumin concentration standard. […]\nTo establish an improved interaction assay, that allows the quantification of protein interactions on a medium to high throughput scale, a commercially available proximity assay system based on the AlphaScreen (Amplified Luminescent Proximity Homogenous Assay) technology (PerkinElmer) was modified. […]"}, "[9]": {"test_system": "TRPV4", "assay": "Whole-cell patch clamp, effect of CaM/CaM mutant overexpression on Ca^2+-dependent TRPV4 current increase", "type": "cell-based, human", "description": "This mutant may bind and displace endogenous CaM, but, owing to the N-terminal mutation, cannot fully substitute for the wild type molecule.\nas §1"}, "[10]": {"test_system": "TRPV4 C2 fragment", "assay": "AlphaScreen-based CaM interaction assay with C2", "type": "binding, human", "method": "as §3\nThe expression plasmids containing the cDNA for CaM or TRPV4 fragments in the pGEX-2TK vector (Amersham) or a modified derivative that contains an in-frame Flag epitope 5’ to the multiple cloning site were transformed into the BL21(DE3) Escherichia coli host, and protein expression was induced by 200 mg/ml IPTG at an OD600 of 0.6. […] The GST-Flag fusion proteins were eluted with 50 mM Tris, pH 8.5, 100 mM KCl, and 10 mM glutathione. The GST-fusion proteins intended for subsequent biotinylation were subjected to an additional wash step with 50 mM HEPES, pH 7.4, 100 mM KCl and eluted with 50 mM HEPES, pH 8.5, 100 mM KCl, and 10 mM glutathione. The purity of all proteins was confirmed by SDS-polyacrylamide gel electrophoresis and Coomassie staining, and the protein concentration determined by the method according to Bradford using an albumin concentration standard. Biotinylation was performed using a 10-fold molar excess of biotinamidocaproate N-hydroxysuccinimide ester (Sigma). After incubation at 4 °C for 12 h, the reaction was stopped by addition of a 10-fold molar excess of NH4Cl and unbound biotin ester removed by extensive dialysis against 50 mM Tris, pH 7.4, 100 mM KCl.\nTo establish an improved interaction assay, that allows the quantification of protein interactions on a medium to high throughput scale, a commercially available proximity assay system based on the AlphaScreen (Amplified Luminescent Proximity Homogenous Assay) technology (PerkinElmer) was modified. The assay principle had been originally developed as an enhanced immunoassay and initially termed luminescent oxygen channeling immunoassay (LOCI [1]). […] The resulting emission at a wavelength of 370 nm is further transformed by fluorophores within the bead into a final emission between 520 nm and 620 nm that can be detected by a photomultiplier. […]"}, "[11]": {"target": "P5 peptide (TRPV4 C-terminal CaM binding site)", "assay": "Fluorescence polarization, binding of CaM and isolated CaM lobes to labeled P5", "set-up": "species or system human", "conditions": "binding to fluorophore-labeled P5 at 100 µM Ca^2+; tracer 100 nM; pH 7.5", "method": "We analyzed the properties of the complex between CaM and C-terminal fragments of the human TRPV4 ortholog, and investigated the structural determinants within the CaM molecule that are involved in binding.\nas §2, with “Tracer peptides were synthesized and coupled to carboxyfluorescein (Dr. Sven Rothemund, Core unit peptide technologies, IZKF, Leipzig). Protein” for “Protein”"}, "[12]": {"conditions": "labeled peptide 100 nM, CaM 10 µM or as indicated, value is Ca^2+ concentration, read-out: Ca^2+ concentration at half-maximal CaM binding (Ca^2+-dependence, EC50)"}},
  "note": "“Also recorded” adds a separate entry of the source. Read-outs that look alike come from different tables or passages of the source. No end group written: not given here.",
  "data": [
    {"molecule": "CCCCCCCCCCCCCC(=O)O[C@@H]1[C@@H](C)[C@@]2(O)[C@@H](C=C(CO)C[C@@]3(O)C(=O)C(C)=C[C@@H]23)[C@@H]2C(C)(C)[C@]12OC(C)=O", "note": "[4α-PMA]", "values": [
      {"measurement": "current activated by 4α-PMA versus wild type", "setting": "[1]", "value": "Significantly larger currents; also recorded: significantly larger than the wild type"},
      {"measurement": "change in FRET fluorescence on stimulation", "setting": "[2]", "value": "transient decreases in the FRET"},
      {"measurement": "current activated by 4α-PMA versus wild type", "setting": "[3]", "value": "Significantly larger currents; also recorded: significantly larger than the wild type"},
      {"measurement": "current activated by 4α-PMA", "setting": "[4]; 4α-PMA 1 µM, nominally Ca^2+-free, wild type, n = 9", "value": "slow, small increase in currents"},
      {"measurement": "activation of TRPV4", "setting": "[4]; nominally Ca^2+-free solutions, HEK293 cells", "value": "weak and slow"}
    ]},
    {"molecule": "CC(C)C[C@H](NC(=O)[C@H](CCCNC(=N)N)NC(=O)CNC(=O)[C@@H](NC(=O)[C@@H](NC(=O)[C@H](Cc1c[nH]cn1)NC(=O)[C@H](CO)NC(=O)[C@H](Cc1ccccc1)NC(=O)CN)[C@@H](C)O)C(C)C)C(=O)N[C@@H](CCCNC(=N)N)C(=O)N[C@@H](CCCNC(=N)N)C(=O)N[C@@H](CC(=O)O)C(=O)N[C@@H](CCCNC(=N)N)C(=O)N[C@@H](Cc1c[nH]c2ccccc12)C(=O)N[C@@H](CO)C(=O)N[C@@H](CO)C(=O)N[C@H](C(=O)N[C@H](C(=O)N1CCC[C@H]1C(=O)N[C@@H](CCCNC(=N)N)C(=O)N[C@H](C(=O)N[C@H](C(=O)N[C@@H](CCC(=O)O)C(=O)O)C(C)C)C(C)C)C(C)C)C(C)C", "note": "[P5]", "values": [
      {"measurement": "EC50", "setting": "[5]; [12]", "value": 3.2, "unit": "µM"}
    ]},
    {"molecule": "C-V4-Y: TRPV4 with CFP and YFP fused to the N- and C termini", "values": [
      {"measurement": "FRET efficiency", "setting": "[6]", "value": "14.6±1.1"}
    ]},
    {"molecule": "GRPNLRMKFQGAFRKGVPNP [P1]", "values": [
      {"measurement": "EC50", "setting": "[5]; [12]", "value": 3.6, "unit": "µM"}
    ]},
    {"molecule": "N3: N-terminal TRPV4 fragment, residues 114-161, includes P2 (RHHSSDNKRWRKKIIEKQPQSPKAPAPQPPPILKVFNRPILFDIVSRG; UniProt Q9HBA0 114-161, looked up, fragment)", "values": [
      {"measurement": "overlay binding site, C terminus library", "setting": "[7]", "value": "strong interaction was found with a region that corresponds to the CaM binding peptide P5"},
      {"measurement": "interaction with C2", "setting": "[8]; 10 nM C2-biotin, N2-Flag 30 pM to 1.5 µM, N3 data not shown", "value": "interdomain interaction could also be shown"}
    ]},
    {"molecule": "RSFPVFLRKAFRSGEMVTVGKSSD [P4]", "values": [
      {"measurement": "EC50", "setting": "[5]; [12]", "value": 7.3, "unit": "µM"},
      {"measurement": "EC50", "setting": "[5]; tracer peptide 100 nM, CaM 0.1 nM to 10 µM, read-out: CaM binding EC50", "value": 5, "unit": "µM"}
    ]},
    {"molecule": "SSDNKRWRKKIIEKQPQSPK [P2]", "values": [
      {"measurement": "interaction with C2-Flag", "setting": "[8]; 100 µM Ca^2+ or 1 mM EGTA, absence of CaM (C2: absence or presence of CaM)", "value": "strong constitutive interaction"},
      {"measurement": "Ca^2+-dependence of P2/C2 interaction", "setting": "[8]; no CaM, Ca^2+ 10 nM to 10 mM", "value": "already present at 0 Ca^2+ and essentially Ca^2+-insensitive over a wide range of Ca^2+ concentrations"}
    ]},
    {"molecule": "calmodulin [CaM]", "values": [
      {"measurement": "current increase upon addition of Ca^2+ on overexpression", "setting": "[9]; HEK293 cells coexpressing TRPV4, 4α-PMA in Ca^2+-free bath, then 2 mM Ca^2+, +100 and -100 mV, CaM12 p = 0.013 and 0.007 compared to CaM overexpression", "value": "slightly increased the TRPV4 response to Ca^2+, but the increase is not statistically significant"},
      {"measurement": "effect on spontaneous or 4α-PMA-activated currents", "setting": "[9]; nominally Ca^2+-free solution, data not shown", "value": "had no effect on spontaneous currents, or currents activated by 4α-PMA"},
      {"measurement": "EC50", "setting": "[10]; AlphaScreen, C2-biotin with CaM-Flag or mutant, 10 nM each, value is Ca^2+ concentration, 50 mM Tris pH 7.4, 100 mM KCl, 0.1% BSA, 90 min room temperature, n = 3 independent experiments in triplicate, read-out: EC50 Ca^2+ concentration for C2 interaction (half maximal binding)", "value": "8.8 ± 1", "unit": "µM"},
      {"measurement": "AlphaScreen signal of CaM/C2 in EGTA", "setting": "[10]; CaM-biotin and C2-Flag in 1 mM EGTA", "value": "No signal was detected"},
      {"measurement": "Hill coefficient (common)", "setting": "[10]; Ca^2+-dependence of C2 binding, common fit for CaM, CaM12 and CaM34, n = 3", "value": 2.0},
      {"measurement": "binding to TRPV4", "setting": "[10]; Ca^2+-free buffers for CaM", "value": "neither binds to CaM in Ca^2+-free buffers"},
      {"measurement": "Kd", "setting": "[11]", "value": 400, "unit": "nM"}
    ]}
  ]
}
